Laboratory results published in ChEMBL document CHEMBL5154843, “Discovery of spirooxadiazoline oxindoles with dual-stage antimalarial activity” (Eur J Med Chem, 2022).
Calls of active or inactive are those of the source. The calls are words filed in the database; no cut-off is given here.

Legend:
[1] = tested on: Plasmodium falciparum; test: Antiplasmodial activity against erythrocytic stage of chloroquine-resistant Plasmodium falciparum W2 measured after 48 hrs by flow cytometry; type: functional, organism-based; conditions: W2, 48 h
[2] = tested on: Plasmodium falciparum; test: Inhibition of plasmodium falciparum 3D7 ATP4 ATPase activity under high-soidum conditions at 125 nM
[3] = tested on: Plasmodium falciparum; test: Antiplasmodial activity against Plasmodium falciparum 3D7 assessed as effect on cytosolic sodium concentration at 50 nM measured after 90 mins by SBFI-dye based fluorescence method; type: functional, organism-based
[4] = tested on: Plasmodium berghei; test: Antiplasmodial activity against hepatic stage Plasmodium berghei infected in Huh-7 cells assessed as cell viability incubated for 1 hrs and measured by 48 hrs by bioluminescence assay; type: functional, organism-based
[5] = tested on: Plasmodium falciparum; test: Antiplasmodial activity against Plasmodium falciparum 3D7 measured after 72 hrs by parasite proliferation assay; type: functional, organism-based; conditions: 3D7, 72 h
[6] = tested on: Plasmodium falciparum; test: Inhibition of plasmodium falciparum 3D7 ATP4 ATPase activity under low-soidum conditions at 50 uM
[7] = tested on: Plasmodium falciparum; test: Inhibition of plasmodium falciparum 3D7 ATP4 ATPase activity under high-soidum conditions at 50 uM

| Structure (SMILES) | IC50 [1] | IC50 [4] | also measured |
| --- | --- | --- | --- |
| O=C1Nc2ccccc2C12OC(c1cccc(Cl)c1)=NN2c1ccccc1 (stereo unspecified) | > 10 µM | – | – |
| O=C1Nc2c(Cl)cccc2C12OC(c1cccc(Cl)c1)=NN2c1cccc(Cl)c1 (stereo unspecified) | > 10 µM | – | – |
| O=C1Nc2c(Cl)cccc2C12OC(c1ccccc1)=NN2c1cccc(Cl)c1 (stereo unspecified) | > 10 µM | – | – |
| O=C1Nc2ccc(Br)cc2C12OC(c1ccc(Cl)cc1)=NN2c1ccccc1 (stereo unspecified) | > 10 µM | – | – |
| C[C@H]1Cc2c([nH]c3cc(Cl)c(F)cc23)[C@@]2(N1)C(=O)Nc1ccc(Cl)cc12 | – | – | inhibition [2]: Active; Activity [3]: Active |
| O=C1Nc2c(Cl)cccc2C12OC(c1cccc(Cl)c1)=NN2c1ccccc1 (stereo unspecified) | > 10 µM | – | – |
| O=C1Nc2ccc(Br)cc2C12OC(c1cccc(Cl)c1)=NN2c1ccccc1 (stereo unspecified) | > 10 µM | – | – |
| COc1ccc(C2=NN(c3ccccc3)C3(O2)C(=O)Nc2ccccc23)cc1 (stereo unspecified) | > 10 µM | – | – |
| O=C1Nc2ccccc2C12OC(c1ccccc1)=NN2c1cccc(Cl)c1 (stereo unspecified) | > 10 µM | – | – |
| CC(C)(C)C1=NN(c2ccccc2Cl)C2(O1)C(=O)Nc1ccc(Cl)cc12 (stereo unspecified) | > 10 µM | – | – |
| O=C1Nc2cc(Cl)ccc2C12OC(c1ccccc1)=NN2c1cccc(Cl)c1 (stereo unspecified) | 8.6 µM | 7.2 µM | – |
| CC(C)(C)C1=NN(c2cccc(Cl)c2)C2(O1)C(=O)Nc1ccc(Cl)cc12 (stereo unspecified) | 3.5 µM | 5.3 µM | – |
| O=C1Nc2ccc(Cl)cc2C12OC(c1ccccc1)=NN2c1cccc(Cl)c1 (stereo unspecified) | 6.4 µM | 7 µM | – |
| O=C1Nc2ccc(Br)cc2C12OC(c1ccccc1)=NN2c1cccc(Cl)c1 (stereo unspecified) | 6.7 µM | 3.9 µM | – |
| O=C1Nc2ccc(Cl)cc2C12OC(c1ccc(Cl)cc1)=NN2c1ccccc1 (stereo unspecified) | > 10 µM | – | – |
| O=C1Nc2c(Cl)cccc2C12OC(c1ccc(Cl)cc1)=NN2c1ccccc1 (stereo unspecified) | > 10 µM | – | – |
| COc1ccc(C2=NN(c3ccccc3)C3(O2)C(=O)Nc2ccc(Cl)cc23)cc1 (stereo unspecified) | > 10 µM | – | – |
| O=C1Nc2cc(Br)ccc2C12OC(c1ccccc1)=NN2c1cccc(Cl)c1 (stereo unspecified) | > 10 µM | – | – |
| CC(C)(C)C1=NN(c2cccc(Cl)c2)C2(O1)C(=O)Nc1cc(Br)ccc12 (stereo unspecified) | 4.6 µM | 9.5 µM | – |
| O=C1Nc2ccc(Cl)cc2C12OC(c1cccc(Cl)c1)=NN2c1ccccc1 (stereo unspecified) | > 10 µM | – | – |
| O=C1Nc2ccc(Br)cc2C12OC(c1ccccc1)=NN2c1ccc(Cl)cc1 (stereo unspecified) | 6 µM | 4.1 µM | IC50 [5]: 6.2 µM; inhibition [6]: Active; inhibition [7]: Active |
| O=C1Nc2c(Cl)cccc2C12OC(c1ccccc1)=NN2c1ccc(Cl)cc1 (stereo unspecified) | 7.6 µM | > 10 µM | – |
| COc1ccc(C2=NN(c3ccccc3)C3(O2)C(=O)Nc2c(Cl)cccc23)cc1 (stereo unspecified) | > 10 µM | – | – |
| CC(C)(C)C1=NN(c2cccc(Cl)c2)C2(O1)C(=O)Nc1ccc(Br)cc12 (stereo unspecified) | 7.5 µM | 9 µM | – |
| COc1ccc(C2=NN(c3ccccc3)C3(O2)C(=O)Nc2ccc(Br)cc23)cc1 (stereo unspecified) | 8.3 µM | > 10 µM | – |
| CC(C)(C)C1=NN(c2ccccc2Cl)C2(O1)C(=O)Nc1ccc(Br)cc12 (stereo unspecified) | > 10 µM | – | – |
| CC(C)(C)C1=NN(c2cccc(Cl)c2)C2(O1)C(=O)Nc1cc(Cl)ccc12 (stereo unspecified) | 3.8 µM | > 10 µM | – |
